What was measured:
[1] = Neutralization of LPS in vitro (TAL / kinetic turbidimetric limulus test); format: biochemical; details: for IC50: LPS 2 ng/ml, 0.5-128 μM, read-out: Half inhibitory concentration (IC50) on LPS; for neutralizing activity with LPS: 1, 2 and 4 μg/ml with equal volume of LPS (2.0 ng/ml), 30 min, p<0.05 or p<0.01, dose-dependent
Description: 2.3.1 Methods: CL-4b was dissolved into LPS-free water to make 8 μg/ml solution, and incubated with equal volume of LPS (1 ng/mL) at 37° C. for 30 min. Subsequently, 100 μl mixed solution of CL-4b and LPS was added with equal volume of the quantitative TAL reagents dissolved in LPS-free water, gently shaked to mix the contents, and reacted at 37° C. for 60 min in kinetic tube reader. The agglutination of TAL reagent induced by the existence of non-neutralized LPS was measured. The mixture of LPS and equal volume of LPS-free water act as positive control. Each group contained three repeated tubes. The result was expressed in EU/ml, the endotoxin unit of LPS. Operation was performed according to the manufacturer's instructions of EDS-99 Bacterial Endotoxin Detecting system.
4.1 Methods: KA and KB (1, 2 and 4 μg/ml) were separately mixed with equal volume of LPS (2.0 ng/ml) and pre-incubated at 37 for 30 min; LPS control group was added with equal volume of nonpyrogenic water; LPS value was detected by kinetic turbidimetric limulus test after incubation; detection of each concentration was repeated three times; LPS content was expressed by means of mean±standard deviation; operation was performed according to the manufacturer's instructions of EDS-99 Bacterial Endotoxin Detecting system.
11.1 Methods: KB and PMB were separately diluted with LPS-free water to make solutions of 0.5, 1, 2, 4, 8, 16, 32, 64 and 128 μM; according to the methods in embodiment 4, above solutions were separately mixed with equal volume of LPS (2 ng/ml), and neutralizing activity was assayed.

[2] = tested on: RAW264.7 cells; assay: Release of TNF-α and IL-6 in RAW264.7 cells induced by LPS and CpG DNA (ELISA); format: cell-based, murine; details: for release of TNF-α induced by CpG DNA / release of TNF-α induced by LPS: 0, 50 and 100 ng/ml, 4 h, p<0.01
Description: 6.1 Methods: RAW264.7 cells were diluted to 1×10^6/ml in DMEM supplemented with 10% (v/v) NCS, added into 96-well plates (200 μl per well), and cultured at 37° C. in a 5% CO2 humidified incubator for 4 h until cells adhere to the wall; culture medium were replaced with fresh culture medium, added with KA and KB (final concentrations of 0, 50 and 100 ng/ml), and added with LPS (final concentration of 100 ng/ml) and CpG DNA (final concentration of 10 μg/ml); at the same time, medium group without any reagent was established; subsequently, RAW264.7 cells were incubated for 4 h; and the supernatant was collected for further detection; detection of the TNF-α concentration was performed according to the manufacturer's instructions of ELISA kit. Result was expressed by means of mean±standard deviation.
12.1 Methods: According to the method in embodiment 6, KB was dissolved in DMEM supplemented with 10% (v/v) NCS, subsequently transferred into Culture medium of RAW264.7 cells to achieved final concentrations of 100 and 200 μM, added with LPS (final concentration of 100 ng/ml) and CpG DNA (final concentration of 10 μg/ml), incubated for 24 h, and then collected supernatant; the concentration of TNF-α and IL-6 of each group was detected according to the manufacturer's instructions of ELISA kit; result was expressed by means of mean±standard deviation.
13.1 Methods: According to the method in embodiment 6, KB and PMB were separately dissolved in DMEM supplemented with 10% (v/v) NCS, subsequently transferred into culture medium of RAW264.7 cells to achieved final concentrations of 50, 100 and 200 μM, and then added with LPS (final concentration of 100 ng/ml) and CpG DNA (final concentration of 10 μg/ml); RAW264.7 cells continued to be incubated; the supernatant were collected four hours later for TNF-α detection; the supernatant were collected 12 hours later for IL-6 detection; the concentration of TNF-α and IL-6 of each group was detected according to the manufacturer's instructions of ELISA kit; result was expressed by means of mean±standard deviation.
17.1 Methods: RAW264.7 cells was diluted to 1×10^6/ml in DMEM supplemented with 10% (v/v) NCS, transferred into 96-well plates (200 μl per well) and cultured at 37° C. in a 5% CO2 humidified incubator for 4 h.
(1) Observation of dose-dependent effects: For the purpose of experiment a medium group and a KB treatment group were established; each group included three repeated wells; medium group was added with no reagent; KB treatment group was added with KB (final concentrations of 12.5, 25, 50, 100 and 200 μM) in each well, and subsequently added with LPS (final concentration of 100 ng/ml) or CpG DNA (final concentration of 10 μg/ml); cells were cultured at 37° C. in a 5% CO2 humidified incubator for 12 h; the supernatant was collected for further detection; operations were performed according to the manufacturer's instructions of ELISA kit, and the result was expressed by means of mean±standard deviation.
(2) Observation of time-dependent effects: For the purpose of experiment a medium group, a stimulation group and a KB treatment group were established; each group contained three repeated wells; medium group was added with no reagent; stimulation group was added with LPS and CpG DNA; KB treatment group was added with LPS and CpG DNA, in the meantime added with KB (final concentration of 200 μM); cells continued to be cultured at 37° C. in a 5% CO2 humidified incubator; the supernatant at time point of 0, 2, 4, 8, 12 and 24 h after stimulation was separately collected for further detection; detection of TNF-α concentration was performed according to the manufacturer's instructions of ELISA kit, and the result was expressed by means of mean±standard deviation.
18.1 Methods: RAW264.7 cells were diluted to 1×10^6/ml in DMEM supplemented with 10% (v/v) NCS, transferred into 96-well plates (200 μl per well) and cultured at 37° C. in a 5% CO2 humidified incubator for 4 h. […]

[3] = 50, 100 and 200 μM, CpG DNA 10 μg/ml, TNF-α at 4 h, IL-6 at 12 h
[4] = 50, 100 and 200 μM, LPS 100 ng/ml, TNF-α at 4 h, IL-6 at 12 h
[5] = CpG DNA 10 μg/ml, dose-dependent

| Molecule | IC50 [1] [µM] | release of TNF-α and IL-6 induced by CpG DNA [2, 3] | release of TNF-α and IL-6 induced by LPS [2, 4] | neutralizing activity with LPS [1] | release of TNF-α induced by CpG DNA [2, 5] | release of TNF-α induced by LPS ([2]; LPS 100 ng/ml, dose-dependent) | release of TNF-α and IL-6 induced by CpG DNA ([2]; 100 and 200 μM, CpG DNA 10 μg/ml, 24 h) | release of TNF-α and IL-6 induced by LPS ([2]; 100 and 200 μM, LPS 100 ng/ml, 24 h) | difference of RAW264.7 cells activation (TNF-α release) vs CpG DNA group ([2]; KB 12.5 μM, CpG DNA 10 μg/ml, 12 h, p>0.05) | difference of RAW264.7 cells activation (TNF-α release) vs LPS group ([2]; KB 12.5 μM, LPS 100 ng/ml, 12 h, p>0.05) | inhibitory activity on TNF-α release induced by CpG DNA ([2]; KB 25 μM and above, CpG DNA 10 μg/ml, 12 h, p<0.05 or p<0.01, dose-dependent) | inhibitory activity on TNF-α release induced by LPS ([2]; KB 25 μM and above, LPS 100 ng/ml, 12 h, p<0.05 or p<0.01) | TNF-α release, KB added before vs at the time of stimulation ([2]; KB 200 μM added 40 or 20 min before vs at 0 min, LPS 200 ng/ml or CpG DNA 20 μg/ml) | TNF-α levels in supernatant at various time points, CpG DNA ([2]; KB 200 μM, CpG DNA 10 μg/ml, 0, 2, 4, 8, 12 and 24 h) | release of TNF-α and IL-6 induced by LPS and CpG DNA ([2]; KB 200 μM, LPS 100 ng/ml, CpG DNA 10 μg/ml, selectivity panel) | TNF-α levels in supernatant at various time points, LPS ([2]; KB 200 μM, LPS 100 ng/ml, 0, 2, 4, 8, 12 and 24 h) | antagonistic effect on other irritant (Pam3CSK4, Poly I:C, TNF-α, IL-1β) ([2]; KB 200 μM, Pam3CSK4 10 μg/ml, Poly I:C 20 μg/ml, TNF-α 50 ng/ml, IL-1β 50 ng/ml) | release of TNF-α induced by LPS and CpG DNA under serum-free conditions ([2]; KB 50, 100 and 200 μM, serum-free DMEM, 12 h, dose-dependant) | inhibition on TNF-α release induced by LPS and CpG DNA, KB preincubated with stimulus ([2]; KB preincubated with LPS or CpG DNA for 20 min or 40 min before loading, 12 h) |
| --- | --- | --- | --- | --- | --- | --- | --- | --- | --- | --- | --- | --- | --- | --- | --- | --- | --- | --- | --- |
| polymyxin B [PMB, reference compound] | 4.8 | can only inhibit the release of TNF-α and IL-6 induced by LPS | inhibit the release of TNF-α and IL-6 |  |  |  |  |  |  |  |  |  |  |  |  |  |  |  |  |
| O=C(CCc1ccc(O)c(O)c1)NCCCNCCCCNCCCNC(=O)CCc1ccc(O)c(O)c1 [KA, Kukoamine A] |  |  |  | significant neutralizing activity | inhibit the release of TNF-α | inhibit the release of TNF-α |  |  |  |  |  |  |  |  |  |  |  |  |  |
| NCCCN(CCCCNCCCNC(=O)CCc1ccc(O)c(O)c1)C(=O)CCc1ccc(O)c(O)c1 [KB, Kukoamine B] | 14.9 | inhibit the release of TNF-α and IL-6 | inhibit the release of TNF-α and IL-6 | significant neutralizing activity | inhibit the release of TNF-α | inhibit the release of TNF-α | inhibit the release of TNF-α and IL-6 | inhibit the release of TNF-α and IL-6 | no statistic significance | no statistic significance | significantly increased | significantly increased | no significant difference | all decreased | can only inhibit the release of TNF-α and IL-6 induced by LPS and CpG DNA | all decreased | no antagonistic effect on other irritant | still inhibit the release of TNF-α | significantly enhanced |
